Several values for one entry are separate records, joined by “and”; a condition that tells them apart may be missing. Equal entries are not always repeated. Where two headings read alike, the source gives them in different places. Marks after values point to notes of the source that are not given here.
Assays:
[1] = test system: Shh-dependent pancreatic cancer cell line L3.6pl; type: cell-based; conditions: for Cell Growth (normalized): normalized to cell growth in carrier
[2] = test system: mouse embryo zone of polarizing activity (ZPA); conditions: Bell, et al. (1999); cited from earlier work
C57BL/6CrIBR mice = assay: Cadmium-induced forelimb ectrodactyly in fetuses of treated pregnant mice; type: in vivo, mouse
Protocol: Cadmium-induced Forelimb Ectrodactyly. C57BL/6CrIBR mice were purchased from Charles River Laboratories (Wilmington, Mass.). Individual males were placed in female cages for the last 2-3 hours of the 12 hour dark cycle (10:00 pm to 10:00 am). The presence of a vaginal plug indicated a successful mating and 9:00 am was considered time zero of pregnancy. On day 7 of gestation, plugged females were lightly anesthetized with Isofluorane and checked for pregnancy by abdominal palpation. The pregnant females were administered CdSO4 (SIGMA, St. Louis, Mo.), 4 mg/kg in phosphate-buffered saline (PBS), intraperitoneally, at 9:00 pm on day 9. These pregnant females were then allowed free access to food and water until day 18 when they were sacrificed by Isofluorane overdose. The fetuses were removed from the uterus and prepared for skeletal analysis by double-staining of cartilage and bone (Kuczuk and Scott (1984) supra).
CdSo4, 4 mg/kg, was administered intraperitoneally on day 9 of gestation.

[3] = test system: mouse embryo zone of polarizing activity (ZPA); assay: Polarizing activity of mouse embryo ZPA grafted to chick wing bud; type: in vivo
Protocol: Polarizing Activity. Fertilized White Leghorn eggs (SPAFAS) were incubated at 38° C. On the second day, 1 to 2 mL of albumin were removed so that the eggs could be windowed the next day without damaging the embryo. After windowing, 3 drops of penicillin/streptomycin (50 units/mL) were added and the window closed with SCOTCH™ tape. On the fourth day of incubation a piece of day 10.5 mouse embryo right forelimb was excised from the posterior aspect (i.e., ZPA) of cadmium sulfate- or PBS-exposed embryos and grafted between the ectoderm and mesenchyme at the anterior margin of a stage 19/20 (Hamburger and Hamilton (1951) J. Morphol. 88:49-92) chick right wing bud. After grafting, 3 drops of penicillin/streptomycin were added, the window closed with tape and the egg replaced in the incubator for 7 additional days. At this time the chick embryo was sacrificed and the right wing bud processed for skeletal examination (Kuczuk and Scott (1984) supra). After staining, the digit pattern was determined and the index of polarizing activity was assessed according to standard methods (Honig, et al. (1981) J. Embryol. Exp. Morph. 62:203-216),

Shh signaling = Shh signaling activity of forelimb bud lysate in Shh-Light 2 cells (Gli-luciferase reporter); type: cell-based, mouse; conditions: lysate of E10.5 right forelimb bud cells, 24 h after 4 mg/kg to dam
Protocol: Shh Signaling Activity. Pregnant C57BL/6 mice were treated with CdSo4, 4 mg/kg, or PBS, 10 mL/kg, at 9:00 pm on day 9 of gestation. Twenty-four hours post-treatment the dams were sacrificed. The implantation sites were removed and frozen in liquid nitrogen. Samples were stored at −80° C. until use in the Shh activity assay.
To create a sample of cell lysate, a litter of implantation sites was thawed and the embryos dissected free of their surrounding membranes. Somites were counted and the embryo limb staged according to standard practices (Wanek, et al. (1989) J. Exp. Zool. 249:41-49). […] Samples were sonicated and DNA measured using the HOEFER™ DYNA QUANT™ 200 Fluorimeter. After DNA quantification, fetal bovine serum was added so that the final concentration of serum was 0.5%.
Assay of SHH signaling activity was conducted in Shh-Light 2 cells, an NIH-3T3-derived stable cell line containing an integrated Gli-luciferase and constitutive Renilla luciferase reporters. […] Using the DUAL-LUCIFERASE® Reporter Assay System (PROMEGA®, Madison, Wis.), luciferase activity was measured and normalized to a Renilla control.
A more direct and specific assay of Shh signaling is provided in Shh-Light 2 cells. […] Culture of these cells with a medium or cellular homogenate containing Shh activates reporter expression and that activity can be quantitated luminometrically.

Shh [4] = assay: Whole mount in situ hybridization, Shh; type: in vivo, mouse; conditions: right forelimb, 24 hours after treatment
Protocol: (§1) Whole Mount In Situ Hybridization. Assays were performed in accordance with standard methods (Wilkinson and Nieto (1993) Meth. Enzymol. 225:361-373). Embryos from control and cadmium-exposed pregnancies were processed together in the same vessel, examined and photographed using an OLYMPUS® SZX9 stereomicroscope. Digoxigenin-labeled riboprobes were transcribed from linearized DNA templates.
(§2) The expression pattern of four genes (i.e., Shh, Ptch1, Gli3, and Fgf8) in the right forelimb of control and cadmium-exposed embryos was examined by whole mount in situ hybridization 24 hours after treatment. The expression of Shh was restricted to the posterior mesenchymal cells of the developing murine limb bud.

Ptch1 [5] = assay: Whole mount in situ hybridization, Ptch1; type: in vivo, mouse; conditions: right forelimb, 24 hours after treatment
Protocol: as §1, §2

Gli3 [6] = assay: Whole mount in situ hybridization, Gli3; type: in vivo, mouse; conditions: right forelimb, 24 hours after treatment
Protocol: as §1, §2

Fgf8 = assay: Whole mount in situ hybridization, Fgf8; type: in vivo, mouse; conditions: day 10.5, 24 hours after administration
Protocol: as §1, §2

Shh [7] = assay: Quantitative RT-PCR of forelimb buds, Shh; type: in vivo, mouse; conditions: limb buds of day 10.5 embryos, normalized to tubulin
Protocol: (§3) Real Time Reverse Transcribed-Polymerase Chain Reaction (RT-PCR). Precise levels of message expression of Shh, Ptch1, and Gli3 were performed by RT-PCR. […] Right and left forelimb buds from a single litter (n=3) were pooled separately and equal amounts of total RNA were reverse-transcribed using […]™ II (INVITROGEN™, Carlsbad, Calif.) in the presence of oligo-dT or random primers. For quantitative PCR, aliquots of the reverse transcription reaction were amplified in the presence of SYBR® Green (Quantitect SYBR® green PCR kit; QIAGEN®, Valencia, Calif.) and gene specific primers for Shh, Ptch1, Gli3 and aTub. […] The PCR amplifications and monitoring of product generation per cycle were performed using a DNA Engine OPTICON® 2 Continuous Fluorescence Detector and evaluated using its software. Gene expression levels were determined by gene-specific standard curves in the linear amplification phase. All values were normalized to tubulin within the same sample.

Ptch1 [8] = assay: Quantitative RT-PCR of forelimb buds, Ptch1; type: in vivo, mouse; conditions: limb buds of day 10.5 embryos, normalized to tubulin
Protocol: as §3

Gli3 [9] = assay: Quantitative RT-PCR of forelimb buds, Gli3; type: in vivo, mouse; conditions: limb buds of day 10.5 embryos, normalized to tubulin
Protocol: as §3

[10] = 4 mg/kg i.p. day 9 of gestation, 8 dams, 68 implantation sites
[11] = 4 mg/kg i.p. day 9 of gestation, fetuses examined day 18

Compound: CC(=O)Nc1nnc(S(N)(=O)=O)s1 [Acetazolamide, reference compound]
- Cell Growth (normalized) ([1]; inhibitor 10 μM): 1.0312
- Cell Growth (normalized) ([1]; inhibitor 100 μM): 1.0370
- Cell Growth (normalized) ([1]; inhibitor 1000 μM): 1.0130
- Signaling by Shh protein measured by polarizing activity of ZPA (in words) [2]: almost totally abolished

Compound: Cadmium Sulfate
- Inhibition of proliferation (in words) ([1]; comparison of inhibitors): more effectively than cyclopamine and acetazolamide
- Cell Growth (normalized) ([1]; inhibitor 1 μM): 1.0341
- Cell Growth (normalized) ([1]; inhibitor 10 μM): 0.9007
- Cell Growth (normalized) ([1]; inhibitor 30 μM): 0.7200
- Cell Growth (normalized) ([1]; inhibitor 100 μM): 0.0041
- Cell Growth (normalized) ([1]; inhibitor 1000 μM): 0.0029
- Fetuses with right forelimb affected by postaxial ectrodactyly (C57BL/6CrIBR mice; 4 mg/kg i.p. day 9): 78%
- Number of fetuses with ectrodactyly, Bilateral R < L (C57BL/6CrIBR mice; 4 mg/kg i.p. day 9): 3
- Number of fetuses with ectrodactyly, Bilateral R = L (C57BL/6CrIBR mice; 4 mg/kg i.p. day 9): 21
- Number of fetuses with ectrodactyly, Bilateral R > L (C57BL/6CrIBR mice; 4 mg/kg i.p. day 9): 5
- Number of fetuses with ectrodactyly, LFL Only (C57BL/6CrIBR mice; 4 mg/kg i.p. day 9, left forelimb only): 4
- Number of fetuses with ectrodactyly, RFL Only (C57BL/6CrIBR mice; 4 mg/kg i.p. day 9, right forelimb only): 12*
- No. Resorptions (C57BL/6CrIBR mice; [10]): 15
- Resorptions (%) (C57BL/6CrIBR mice; [10]): 22%
- Fetuses with Postaxial Forelimb Ectrodactyly (%) (C57BL/6CrIBR mice; [11]): 85%
- No. Fetuses with Postaxial Forelimb Ectrodactyly (C57BL/6CrIBR mice; [11]): 45
- Capability of ZPA to induce limb reduplication (in words) ([3]; day 10.5 mouse embryo ZPA after exposure): severely inhibited
- Induced Digit Pattern ([3]; individual grafts of day 10.5 ZPA from exposed embryos, x = unidentifiable partial duplicated digit, listed as CdSo4): 22234 and 234 (4×)
- Shh signaling level compared to lysate from control embryo right forelimb buds (Shh signaling): 25%
- Shh expression location or intensity (in words) (Shh [4]): No discernable difference
- Ptch1 expression pattern (in words) (Ptch1 [5]): unchanged
- Gli3 expression (in words) (Gli3 [6]): did not alter Gli3 expression
- Fgf8 staining (in words) (Fgf8): slight truncation of Fgf8 staining posteriorly
- Shh mRNA level (in words) (Shh [7]): A reduction of mRNA levels was not observed
- Ptch1 mRNA level (in words) (Ptch1 [8]): A reduction of mRNA levels was not observed
- Gli3 mRNA level (in words) (Gli3 [9]): A reduction of mRNA levels was not observed
